Laboratory results: PubChem BioAssay AID330 (DTP/NCI, 2004)
Where “and” joins values, the source holds several entries; their conditions need not be identical. Equal entries are not always repeated. Inconclusive results and toxic doses are left out. Rule for the calls: active = survival T/C of 150% or more; inactive = T/C below 125% in these data.

System: P388 leukemia ip, CD2F1 mice, survival T/C
Assay: NCI In Vivo Anticancer Drug Screen. Data for tumor model P388 Leukemia (intraperitoneal) in CD2F1 (CDF1) mice
Conditions: endpoint: median survival time, higher = longer survival
Method in brief: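 Mice carrying the transplanted tumor received test compound or vehicle. Survival was recorded in each group, and the value is the treated-group measurement divided by that of the vehicle-treated control group.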

[1] = dose: 50.0 mg/kg/injection, schedule: Q01DX005 (ip), vehicle: Klucel (hydroxypropylcellulose) (HPC)
[2] = dose: 100.0 mg/kg/injection, schedule: Q01DX005 (ip), vehicle: Klucel (hydroxypropylcellulose) (HPC)
[3] = dose: 200.0 mg/kg/injection, schedule: Q01DX005 (ip), vehicle: Klucel (hydroxypropylcellulose) (HPC)
[4] = dose: 50.0 mg/kg/injection, schedule: Q01DX009 (ip), vehicle: saline
[5] = dose: 100.0 mg/kg/injection, schedule: Q01DX009 (ip), vehicle: saline
[6] = dose: 200.0 mg/kg/injection, schedule: Q01DX009 (ip), vehicle: saline

Measured: T/C

COC(CNCC(OC)OC)OC
inactive: dose: 3.13 mg/kg/injection, schedule: Q01DX009 (ip), vehicle: water 96 % of control | dose: 6.25 mg/kg/injection, schedule: Q01DX009 (ip), vehicle: water 102 % of control | dose: 12.5 mg/kg/injection, schedule: Q01DX009 (ip), vehicle: water 95 % of control | dose: 25.0 mg/kg/injection, schedule: Q01DX009 (ip), vehicle: water 102 % of control | dose: 50.0 mg/kg/injection, schedule: Q01DX009 (ip), vehicle: water 93 % of control | dose: 100.0 mg/kg/injection, schedule: Q01DX009 (ip), vehicle: water 104 % of control

Clc1ccccc1N/N=c1\nnc2c(Cl)cccc2s1
inactive: dose: 50.0 mg/kg/injection, schedule: Q04DX002 (ip), vehicle: saline with Tween-80 95 % of control | dose: 100.0 mg/kg/injection, schedule: Q04DX002 (ip), vehicle: saline with Tween-80 94 % of control | dose: 200.0 mg/kg/injection, schedule: Q04DX002 (ip), vehicle: saline with Tween-80 91 % of control

N#Cc1ccc(C(=O)C=C(C(F)(F)F)C(F)(F)F)cc1
inactive: dose: 3.13 mg/kg/injection, schedule: Q01DX009 (ip), vehicle: other 115 % of control | dose: 5.56 mg/kg/injection, schedule: Q01DX009 (ip), vehicle: other 120 % of control

CCOC(=O)CCC1=C(C)c2cc3[n-]c(cc4nc(cc5[n-]c(cc1n2)c(CCC(=O)OCC)c5C)C=C4C)cc3C.[Ni+2]
inactive: [1] 96 % of control | [2] 92 % of control

CCCCN=C(N=C(N)N)NCC
inactive: dose: 50.0 mg/kg/injection, schedule: Q01DX005 (ip), vehicle: saline 102 % of control | dose: 100.0 mg/kg/injection, schedule: Q01DX005 (ip), vehicle: saline 102 % of control

COc1ccc(CCN=C(C)c2cc(Cl)cc(Cl)c2O)cc1OC
inactive: [1] 104 % of control | [2] 102 % of control | [3] 95 % of control

C=C1C(=O)OC2/C=C(\C)C(OC(C)=O)C3OC3C(C)(O)CC(OC(=O)/C(C)=C/C)C12 (stereo not drawn)
inactive: dose: 10.0 mg/kg/injection, schedule: Q01DX009 (ip), vehicle: saline with Tween-80 99 % of control | dose: 20.0 mg/kg/injection, schedule: Q01DX009 (ip), vehicle: saline with Tween-80 104 % of control | dose: 40.0 mg/kg/injection, schedule: Q01DX009 (ip), vehicle: saline with Tween-80 107 % of control

C[C@H](N)C(=O)NCCNC(=O)[C@H](C)N
inactive: dose: 60.0 mg/kg/injection, schedule: Q01DX005 (ip), vehicle: saline 96 % of control | dose: 120.0 mg/kg/injection, schedule: Q01DX005 (ip), vehicle: saline 107 % of control | dose: 240.0 mg/kg/injection, schedule: Q01DX005 (ip), vehicle: saline 105 % of control

Cc1cccc(N=Nc2c(-c3ccccc3)nn(C(N)=S)c2C)c1C
inactive: dose: 100.0 mg/kg/injection, schedule: Q04DX002 (ip), vehicle: Klucel (hydroxypropylcellulose) (HPC) 94 % of control | dose: 200.0 mg/kg/injection, schedule: Q04DX002 (ip), vehicle: Klucel (hydroxypropylcellulose) (HPC) 105 % of control | dose: 400.0 mg/kg/injection, schedule: Q04DX002 (ip), vehicle: Klucel (hydroxypropylcellulose) (HPC) 94 % of control

Cc1ccc(O)c2c(NCCCCCCNc3cc(C)[n+](C)c4c(C)ccc(O)c34)cc(C)[n+](C)c12
inactive: dose: 12.5 mg/kg/injection, schedule: Q01DX005 (ip), vehicle: saline with Tween-80 99 % of control | dose: 25.0 mg/kg/injection, schedule: Q01DX005 (ip), vehicle: saline with Tween-80 112 % of control | dose: 50.0 mg/kg/injection, schedule: Q01DX005 (ip), vehicle: saline with Tween-80 92 % of control

CC(=O)Oc1c(C)c(O)c(C(C)=O)c2c1C1(C)C(=O)C(C(C)=O)=C(O)C=C1O2 (stereo not drawn)
inactive: dose: 6.25 mg/kg/injection, schedule: Q01DX009 (ip), vehicle: gum acacia 104 % of control and 107 % of control | dose: 12.5 mg/kg/injection, schedule: Q01DX009 (ip), vehicle: gum acacia 101 % of control and 106 % of control | dose: 25.0 mg/kg/injection, schedule: Q01DX009 (ip), vehicle: gum acacia 101 % of control and 110 % of control | dose: 50.0 mg/kg/injection, schedule: Q01DX009 (ip), vehicle: gum acacia 100 % of control and 104 % of control | dose: 100.0 mg/kg/injection, schedule: Q01DX009 (ip), vehicle: gum acacia 108 % of control and 110 % of control | dose: 200.0 mg/kg/injection, schedule: Q01DX009 (ip), vehicle: gum acacia 113 % of control and 119 % of control

CC1=NN(c2cccc(S(=O)(=O)O)c2)C(=O)C1N=Nc1cc(Cl)cc(S(=O)(=O)O)c1O.CC1=NN(c2cccc(S(=O)(=O)O)c2)C(=O)C1N=Nc1cc(Cl)cc(S(=O)(=O)O)c1O.[Cr] (stereo not drawn)
inactive: [4] 111 % of control and 119 % of control | [5] 120 % of control and 122 % of control | [6] 123 % of control | dose: 400.0 mg/kg/injection, schedule: Q01DX009 (ip), vehicle: saline 122 % of control

C=C[C@@]1(C)CC(=O)[C@]2(O)[C@@]3(C)[C@@H](O)CCC(C)(C)[C@@H]3[C@H](O)[C@@H](OC(C)=O)[C@@]2(C)O1
inactive: dose: 6.25 mg/kg/injection, schedule: Q01DX005 (ip), vehicle: saline + Tween-80 + alcohol 95 % of control | dose: 12.5 mg/kg/injection, schedule: Q01DX005 (ip), vehicle: saline + Tween-80 + alcohol 102 % of control

C[N+](C)=c1ccc2nc3ccc(N)cc3sc-2c1
inactive: dose: 3.13 mg/kg/injection, schedule: Q01DX009 (ip), vehicle: saline 106 % of control | dose: 6.25 mg/kg/injection, schedule: Q01DX009 (ip), vehicle: saline with Tween-80 87 % of control | dose: 6.25 mg/kg/injection, schedule: Q01DX009 (ip), vehicle: saline 94 % of control | dose: 12.5 mg/kg/injection, schedule: Q01DX009 (ip), vehicle: saline 95 % of control | dose: 25.0 mg/kg/injection, schedule: Q01DX009 (ip), vehicle: saline with Tween-80 102 % of control and 103 % of control | dose: 25.0 mg/kg/injection, schedule: Q01DX009 (ip), vehicle: saline 107 % of control | dose: 50.0 mg/kg/injection, schedule: Q01DX009 (ip), vehicle: saline with Tween-80 95 % of control | [4] 104 % of control

C=CCN(C#N)CC=C
inactive: [4] 96 % of control

Cc1cc(O)c2c(c1)C(=O)c1c(-c3ccc(O)c4c3C(=O)c3c(O)c(C)cc(O)c3C4=O)ccc(O)c1C2=O
inactive: dose: 3.0 mg/kg/injection, schedule: Q01DX005 (ip), vehicle: Klucel (hydroxypropylcellulose) (HPC) 95 % of control | dose: 6.0 mg/kg/injection, schedule: Q01DX005 (ip), vehicle: Klucel (hydroxypropylcellulose) (HPC) 95 % of control | dose: 12.0 mg/kg/injection, schedule: Q01DX005 (ip), vehicle: Klucel (hydroxypropylcellulose) (HPC) 93 % of control | dose: 24.0 mg/kg/injection, schedule: Q01DX005 (ip), vehicle: Klucel (hydroxypropylcellulose) (HPC) 86 % of control

CN(C)S(=O)(=O)N1CCOCC1
inactive: dose: 50.0 mg/kg/injection, schedule: Q04DX003 (ip), vehicle: Klucel (hydroxypropylcellulose) (HPC) 95 % of control | dose: 100.0 mg/kg/injection, schedule: Q04DX003 (ip), vehicle: Klucel (hydroxypropylcellulose) (HPC) 101 % of control | dose: 200.0 mg/kg/injection, schedule: Q04DX003 (ip), vehicle: Klucel (hydroxypropylcellulose) (HPC) 93 % of control | dose: 400.0 mg/kg/injection, schedule: Q04DX003 (ip), vehicle: Klucel (hydroxypropylcellulose) (HPC) 110 % of control

Oc1ccc2c3c1OC1CCCC4[C@H](C2)N(Cc2ccoc2)CC[C@@]314 (stereo partly drawn)
inactive: [4] 91 % of control | [5] 98 % of control | [6] 91 % of control

O=c1[nH]c(=O)c2[nH]c(Br)nc2[nH]1
inactive: [1] 102 % of control | [2] 100 % of control | [3] 100 % of control

Cc1cccc(C)c1NC(=O)C(=O)C(C#N)c1c(Cl)cccc1Cl (stereo not drawn)
inactive: dose: 60.0 mg/kg/injection, schedule: Q01DX005 (ip), vehicle: saline with Tween-80 102 % of control | dose: 120.0 mg/kg/injection, schedule: Q01DX005 (ip), vehicle: saline with Tween-80 102 % of control | dose: 240.0 mg/kg/injection, schedule: Q01DX005 (ip), vehicle: saline with Tween-80 104 % of control
